The nature of data set [1]: Pharmacokinetics of MMMDPB and DPB after oral MMMDPB or NaMMMDPB and intravenous NaMMMDPB. Format: in vivo, Beagle dogs. How it is done: (§1) In accordance with the present invention, pharmacokinetic parameters were calculated using standard non-compartmental methods, as implemented in WinNonlin™ 4.0.1. […] The mean, SD and CV (%) were used to calculate the AUC0-t (µg.h/mL), Cmax (µg/ml) (the maximum observed concentration), Tmax (hours) (the time to reach that peak concentration) and Kel (the elimination rate constant) for each animal and each analyte.
(§2) AUC0-t was calculated using the linear trapezoidal rule, which employs an approximate integration formula. The area of each trapezoid was calculated, and the sum of all the areas of all the trapezoids yielded an estimate of the true area under the curve. (See, Gibaldi et al. Pharmacokinetics. 2nd Ed. Marcel Dekker, Inc., 1982; Yeh et al., A comparison of numerical integrating algorithms by trapezoidal, lagrange, and spline approximations. J. Pharmacokinet Biopharm. 6: 79 (1978), the disclosure of which is herein incorporated by reference.) Cmax and Tmax were then determined for each concentration vs. time profile. Elimination rate constant (Kel) was calculated using regression analyses on the natural log (In) of plasma concentration values (y) versus time (x).
Blood samples were obtained pre-dose and 0.25, 0.5, 1, 2, 3, 4, 6, 9, 12, 15, 18, and 24 hours after dosing. Venous blood (~1 mL) were drawn and collected in lithium heparin (anticoagulant). Blood samples were spun in a refrigerated centrifuge and plasma were stored at -80°C prior to analysis. […] Calibration curves were obtained using a weighted (1/C^2) least squares linear regression analysis of peak area ratio (analyte/internal standard) versus the nominal concentration of the calibration standards. Concentrations were obtained by interpolation from the run defined calibration curve. Regressions and figures were generated by PE Sciex Analyst Version 1.2 software.
Plasma samples were thawed and subjected to solid phase extraction with 2 mL acetonitrile prior to HPLC method with Tandem Mass Spectrometry Detection. Chromatographic conditions were performed as followed: […]

Data set [2] is described as follows: Pharmacokinetics of DPB after oral DPB or NaDPB and intravenous NaDPB. Particulars: 150 mg/kg; for AUC at 24 h: rat, in vivo, analyte DPB, read-out: AU0-24; for AUC0-t for DPB greater than after oral administration of DPB / Cmax for DPB greater than after oral administration of DPB: versus oral DPB. It counts as in vivo, Sprague-Dawley rats. As for the experimental part: as §1, §2
(§3) We examined the delivery of DPB to the vascular compartment by administrating directly DPB and compared it with the sodium salt of DPB. This study compared the pharmacokinetics of DPB after oral administration of DPB (150 mg/kg) and sodium salt of DPB (150 mg/kg) in rats. Fifty-four rats were administered DPB and sodium salt of DPB by a single oral gavage (n=54). Blood samples were obtained (approximately 0.5 mL each) were collected following each treatment from animal via the jugular vein. Blood samplings from groups of 3 rats/sex/time point were collected at various times after dosing, in order to provide the complete time-points of pre-dose, 0, 0.5, 1, 2, 3, 4, 6, 12, 18, 24, 36 and 48 hours after dosing. Each blood sample was collected into a tube containing lithium heparin and the samples were spun in a refrigerated centrifuge. The resultant plasma was stored at -80°C prior to analysis. DPB was quantified in plasma using HPLC (LLOQ=0.25 µg/mL).
We calculated AUC0-t for DPB at various times (24, 36 and 48 hours) after oral administrations of DPB and sodium salt of DPB. Table 5: AUCs at various times (24,36 and 48 hours) after Oral Administration of DPB and NaDPB in Beagle Dogs (75 mg/kg, n=28)

Data set [3] can be described thus: Brain concentration of DPB after oral DPB or NaDPB and intravenous NaDPB. It counts as in vivo, Sprague-Dawley rats. Conditions: 150 mg/kg. As for the experimental part: as §3
In this study, we measured the brain concentration of DPB. Brains were collected as soon as possible after euthanasia from each rat. They were stored in a freezer at -80°C prior to determination of DPB brain tissue concentrations. Table 6 summarizes the brain concentrations of DPB after oral administration of DPB and sodium salt of DPB in Sprague-Dawley rats.

In data set [4] the test system is maximal electroshock seizure (MES). Particulars: cited from earlier work.
The conditions of data set [5]: aqueous solution at pH 7; cited from earlier work.
Data set [6] in a line: Pharmacokinetics of DPB after oral DPB or NaDPB and intravenous NaDPB. It counts as in vivo, Beagle dogs. Conditions: 75 mg/kg, versus oral DPB free acid. As for the experimental part:
as §1, §2
We examined the delivery of DPB to the vascular compartment by administrating directly DPB and compared it with the sodium salt of DPB in dogs. […] DPB was quantified in plasma using HPLC (LLOQ=0.25 µg/mL). […]

The mark [7] stands for this setting: dog, in vivo, iv, 15 mg/kg, IV infusion, analyte DPB.

Like-named read-outs stand apart in the source and are kept apart here.

In the case of `COCN1C(=O)NC(=O)C(c2ccccc2)(c2ccccc2)C1=O` [NaMMMDPB, sodium monomethoxymethyl-5,5-diphenyt barbiturate], the AUC(0-t) in data set [1] (Oral, 30 mg/kg, analyte DPB) amounted to 135.10 µg·h/mL; in data set [1] (dog, in vivo, iv, 15 mg/kg, IV infusion, 15 mg/kg, analyte DPB, read-out: AUC0-t), 59.4 µg·h/mL; in data set [1] (dog, in vivo, po, 30 mg/kg, Oral, 30 mg/kg, analyte DPB, read-out: AUC0-t) it was 135 µg·h/mL; in data set [1] (dog, in vivo, po, 30 mg/kg, Oral, 30 mg/kg, analyte MMMDPB, read-out: AUC0-t) it was 29.4 µg·h/mL. In addition, the Cmax in data set [1] (setting [7]) turned out to be 8600 ng/mL; in data set [1] (dog, in vivo, po, 30 mg/kg, analyte DPB, plasma, n=8) it was 11600 ng/mL. The Tmax in data set [1] (setting [7]) amounted to 3.13 h; in data set [1] (dog, in vivo, po, 30 mg/kg, analyte DPB), 7.28 h. Further, the bioavailability in data set [1] (dog, in vivo, Oral, 30 mg/kg, analyte DPB, read-out: F (absolute bioavailability)) came to 315%.
For `COCN1C(=O)NC(=O)C(c2ccccc2)(c2ccccc2)C1=O` [MMMDPB, monomethoxymethyl-5,5-diphenyl barbituric acid], the AUC(0-t) in data set [1] (Oral, 30 mg/kg, analyte DPB) worked out at 193.18 µg·h/mL; in data set [1] (dog, in vivo, Oral, 30 mg/kg, analyte DPB, read-out: AUC0-t) it was 193 µg·h/mL. For the same compound, the Tmax in data set [1] (dog, in vivo, Oral, 30 mg/kg, analyte DPB) worked out at 9.39 h. The compound also gave a Cmax in data set [1] (dog, in vivo, Oral, 30 mg/kg, analyte DPB, plasma, n=8) of 13900 ng/mL.
Regarding `O=C1NC(=O)C(c2ccccc2)(c2ccccc2)C(=O)N1` [DPB, 5,5-diphenyl barbituric acid], the AUC at 24 h in data set [2] (po, Oral, female) was 1210 µg·h/mL; in data set [2] (po, Oral, male) it was 623 µg·h/mL. Moreover, the “Mean Brain Concentrations of DPB” value in data set [3] (female, 24 hr) is 7.04 µg/g; in data set [3] (female, 36 hr) it was 6.84 µg/g; in data set [3] (female, 48 hr), 5.24 µg/g; in data set [3] (male, 24 hr), 3.09 µg/g; in data set [3] (male, 36 hr) it was 3.36 µg/g; in data set [3] (male, 48 hr) it was “BQL”. In addition, the protection is at least 50% in data set [4] (brain concentrations in excess of 10 µg/ml) and at most 20% in data set [4] (brain concentrations of DPB less than 1 µg/ml). The “Water solubility, less soluble as compared to phenobarbital” value in data set [5] is 1/100.
Consider `O=C1NC(=O)C(c2ccccc2)(c2ccccc2)C(=O)N1.[Na]` [NaDPB, sodium 5,5-diphenyl barbiturate], for which the “AUC0-t for DPB greater than after oral administration of DPB” value in data set [6] is given as ~ 4 fold; in data set [2] (Oral, female), ~ 2 fold; in data set [2] (Oral, male) it was ~ 4.5 fold. For the same compound, the “Cmax for DPB greater than after oral administration of DPB” value in data set [6] is ~ 3 fold; in data set [2] (Oral, female) it was ~ 1.5 fold; in data set [2] (Oral, male) it was ~ 2.5 fold. For the same compound, the AUC at 24 h was found to be 3400 µg·h/mL in data set [2] (iv, IV infusion, female); 3160 µg·h/mL in data set [2] (iv, IV infusion, male); 1990 µg·h/mL in data set [2] (po, Oral, female); 1710 µg·h/mL in data set [2] (po, Oral, male).

A word on the Cmax: it is the peak of the concentration-time curve. Usually Tmax stands for the time at which the peak concentration occurs.

Source of the values: patent EP1781294B1, “COMPOSITION FOR IMPROVED BIOAVAILABILITY AND ENHANCED BRAIN DELIVERY OF 5,5-DIPHENYL BARBITURIC ACID” (priority 2004, dated 2006).
